How the values were obtained:
[1] = tested on: carrageenan-induced rat paw edema; assay: Carrageenan-induced rat paw edema model (anti-inflammatory activity); format: in vivo; design: key to Potency (anti-inflammatory activity of tested compound/ibuprofen): ratio of % inhibition of edema (compound / ibuprofen); ibuprofen = 1.00; conditions: for % Inhibition in Edema Thickness 1 h: 1 h after induction of inflammation; for % Inhibition in Edema Thickness 1 h / % Inhibition in Edema Thickness 2 h / % Inhibition in Edema Thickness 3 h: IP, dose molecularly equivalent to ibuprofen, n = 6; for % Inhibition in Edema Thickness 2 h: 2 h after induction of inflammation; for % Inhibition in Edema Thickness 3 h: 3 h after induction of inflammation; for Potency (anti-inflammatory activity of tested compound/ibuprofen): after 3 h of induction of inflammation, relative to ibuprofen; for anti-inflammatory activity (in words): compared with ibuprofen and parent compound 12
From the text: The carrageenan-induced rat paw edema model was utilized to investigate the anti-inflammatory activity of compounds 12–19 relative to ibuprofen as a reference drug.
(§1) Adult albino rats of both sex weighing 100–140 g were used in evaluation of the anti-inflammatory, analgesic, ulcerogenic activity in addition to the histopathological study of the new pyrrolizines 12–19. Animal ethical use clearance was obtained from the Ethical Committee at the College of Pharmacy, Umm Al-Qura University. Normalization of the animals with laboratory conditions were achieved by keeping them in laboratory one week before starting the experiments. Standard rat pellet diet was used for feeding animals and water ad libitum.
The anti-inflammatory activity of the novel compounds 12–19 was evaluated in comparison with ibuprofen as a standard, using a rat paw edema model as described by Winter et al.. Adult albino rats of both sexes (100–140 gm) were used. Rats were uniformly hydrated by giving 3 mL water for each rat through gastric inoculation to reduce variability to edema response. Animals were then divided into groups of six animal each. The control group was given saline solution containing few drops of sodium carboxymethyl cellulose (CMC) 1% and DMSO. Ibuprofen (50 and 100 mg/kg) was given as standard drug. The new compounds 12–19 in a dose molecularly equivalent to ibuprofen were dissolved in 0.5 mL DMSO and CMC 1% was added dropwise with continuous triturating to complete the specified volume. The tested compounds were administered intraperitoneally (IP). The induction of inflammation was achieved by subcutaneous (SC) injection of carrageenan-sodium gel, into the sub-plantar region of the right hind paw. The dorsoventral diameter (thickness) of the right and left hind paw of each rat was measured using digital calipers with accuracy of 0.01 mm (Cole-Parmer, Vernon Hills, IL, USA). The thickness of edema was measured 1, 2 and 3 h after induction of inflammation. The left hind paw diameter served as a control for the degree of inflammation in the right hind paw. The changes in the edema thickness were expressed as mean ± SEM, Figure 4. The anti-inflammatory activity was calculated as % inhibition of inflammation = (1 − Lt/Lc) × 100. Where Lt is the mean increase in paw thickness in rats treated with the tested compounds and Lc is the mean increase in paw thickness in control group. Data were collected, and statistically analyzed by One way ANOVA followed by student-Newman-Keuls multiple comparison test, Table 2.

[2] = tested on: thermal pain (hot plate); assay: Hot-plate test (analgesic activity); format: in vivo, rat; conditions: IP; for analgesic potency relative to ibuprofen: 0.48 mmol/kg; for analgesic activity (in words): 0.24 and 0.48 mmol/kg, 2 h after injection, compared with ibuprofen
Method: A hot-plate was used to induce thermal pain and the cutoff time was fixed to 15 s [30]. […] The analgesic activity of the novel pyrrolizines were carried out using the thermal model (hot-plate test) according to a previous report [30]. An electronically controlled hot-plate (Harvard Apparatus Ltd., Kent, UK) was used and the cut-off time was 15 s and the temperature was adjusted to 52 ± 0.1 °C. Animals were then divided into groups of six animal each. Rats were assigned numbers of 1–6 in each group. The reference drug was given intraperitoneally at a dose of 50 mg/kg (0.24 mmol/kg) and 100 mg/kg (0.48 mmol/kg). […] The response latencies (time elapsed until licking paw or jumping) were measured and expressed as mean ± SEM. The percent changes (analgesic effects) of the tested compounds were calculated as percent change in latencies divided by baseline time (100 × (T1 − T0)/T0) and results were expressed as % change ± SEM, Figure 6.

[3] = tested on: rat stomach mucosa; assay: Acute ulcerogenicity study; format: in vivo; conditions: oral, 0.48 mmol/kg; for Ulcerogenicity UI (ulcer index): three days, n = 6
Method: GIT toxicity is the main serious side effect of the NSAIDs. In this work, the ulcerogenicity of the novel compounds 12–19 was evaluated according to the previous reported methodology. The tested compounds 12–19 and ibuprofen were given orally in a dose of 0.48 mmol/kg.
as §1
GIT toxicity was evaluated according to the previous report. Adult albino rats of both sexes were divided into groups of six animals each. The test compounds were dissolved first in 0.5 mL DMSO, then CMC (1%) was added dropwise with trituration. Rats were fasted 20 h before drug administration. The eight tested compounds and ibuprofen were given orally in a dose of 0.24 and 0.48 mmol/kg/day suspended in 1% CMC, while the control group received vehicle (1% CMC containing few drops of DMSO). Rats were then fasted for 2 h, allowed to feed for 2 h then fasted again for another 20 h. Other doses were given in the second and third days. In the fourth day, Pentobarbital (60 mg/kg IP) was used to induce deep anesthesia then rats were sacrificed. The stomachs were removed, opened along with the greater curvature and rinsed with 0.9% saline. The number of mucosal damages (red spots) were counted using magnifying lens and their severity (ulcerogenic severity) was graded in a scale from 0 to 3 as follows: (0) normal (no injury), (0.5) red coloration, (1) spot ulcer, (1.5) hemorrhagic streaks, (2) ulcer > 3 mm, (3) ulcer > 5 mm. The ulcer index was calculated using the following equation ulcer index (UI) = UN + US + UP/10, where UN is the average number pf ulcers per animal, US is the average of severity score, UP is the percent of animal with ulcer.

[4] = tested on: stomach mucosa, submucosa and mucosal glands; assay: Histopathological study of rat stomach; format: in vivo; conditions: rats of the ulcerogenicity test, haematoxylin and eosin stain
From the text: The stomachs of the rats used in ulcerogenicity test were subjected to a histopathological study to visualize the deep effects of ibuprofen and tested compounds on the stomach mucosa, submucosa and mucosal glands. The specimens were stained with haematoxylin and eosin stain [33].
The study investigated the deep effect of the tested compounds on the mucosa, submucosa and mucosal gland. The stomachs which were opened longitudinally along the greater curvature were used and the specimens were taken from the stomachs of all cases. These specimens were fixed in 10% formalin solution for 72 h. The samples were processed and embedded in paraffin wax. Microtomy was done and 5 microns tissue sections were obtained and mounted on clean glass slides.

[5] = target: T1, COX-1 (ovine) (Ovis aries, UniProt P05979); assay: COX colorimetric inhibitor screening assay, COX-1
T1 sequence (P05979 25-600): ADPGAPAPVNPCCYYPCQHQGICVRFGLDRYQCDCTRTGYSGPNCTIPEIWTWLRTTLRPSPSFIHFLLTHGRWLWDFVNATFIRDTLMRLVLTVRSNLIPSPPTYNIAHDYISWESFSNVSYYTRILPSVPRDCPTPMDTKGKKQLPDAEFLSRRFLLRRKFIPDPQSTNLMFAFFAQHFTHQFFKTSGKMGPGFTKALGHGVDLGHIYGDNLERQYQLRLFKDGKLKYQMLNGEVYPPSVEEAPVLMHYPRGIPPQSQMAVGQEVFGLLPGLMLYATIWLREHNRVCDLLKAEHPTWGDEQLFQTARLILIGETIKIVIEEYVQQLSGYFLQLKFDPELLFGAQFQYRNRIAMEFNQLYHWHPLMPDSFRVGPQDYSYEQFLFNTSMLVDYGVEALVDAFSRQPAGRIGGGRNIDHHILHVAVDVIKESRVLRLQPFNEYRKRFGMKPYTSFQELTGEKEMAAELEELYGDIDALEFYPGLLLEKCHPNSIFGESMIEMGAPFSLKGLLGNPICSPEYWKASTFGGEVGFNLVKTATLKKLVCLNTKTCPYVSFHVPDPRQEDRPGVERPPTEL

[6] = target: T2, COX-2 (human recombinant) (Homo sapiens, UniProt P35354); assay: COX colorimetric inhibitor screening assay, COX-2; conditions: for SI (COX-2 selectivity index = IC50 of COX-1/IC50 of COX-2): in vitro
T2 sequence (P35354 18-604): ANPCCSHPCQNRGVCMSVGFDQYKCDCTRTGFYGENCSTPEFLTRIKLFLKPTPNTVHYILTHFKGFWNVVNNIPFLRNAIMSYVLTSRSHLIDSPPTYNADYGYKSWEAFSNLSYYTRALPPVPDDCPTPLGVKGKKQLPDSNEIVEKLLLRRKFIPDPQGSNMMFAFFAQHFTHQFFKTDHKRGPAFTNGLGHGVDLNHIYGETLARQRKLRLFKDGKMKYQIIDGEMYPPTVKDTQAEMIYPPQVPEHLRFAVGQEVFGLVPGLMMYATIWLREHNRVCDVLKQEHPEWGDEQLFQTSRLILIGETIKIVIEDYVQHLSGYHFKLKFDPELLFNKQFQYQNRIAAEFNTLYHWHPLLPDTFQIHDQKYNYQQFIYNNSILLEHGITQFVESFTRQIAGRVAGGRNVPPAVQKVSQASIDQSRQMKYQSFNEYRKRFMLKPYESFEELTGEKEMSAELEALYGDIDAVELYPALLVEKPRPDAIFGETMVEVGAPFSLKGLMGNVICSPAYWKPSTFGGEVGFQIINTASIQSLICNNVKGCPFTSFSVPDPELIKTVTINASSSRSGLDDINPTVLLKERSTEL

N#Cc1c(N)c(C(=O)Nc2ccc(Br)cc2)n2c1CCC2 [Compound 12, 6-Amino-N-(4-bromophenyl)-7-cyano-2,3-dihydro-1H-pyrrolizine-5-carboxamide]
% Inhibition in Edema Thickness 1 h [1]: 21.20% | % Inhibition in Edema Thickness 2 h [1]: 37.40% | % Inhibition in Edema Thickness 3 h [1]: 44.79% | Potency (anti-inflammatory activity of tested compound/ibuprofen) [1]: 1.10 | anti-inflammatory activity (in words) [1]: higher anti-inflammatory activity than that of ibuprofen | analgesic potency relative to ibuprofen [2]: 1.03 to 1.27 times | analgesic activity (in words) [2]: higher analgesic activity than ibuprofen | Ulcerogenicity UI (ulcer index) [3]: 4.66 | Ulcerogenicity % Protection (% inhibition of ulcer relative to ibuprofen) [3]: 66.38% | histopathological findings in stomach transverse sections [4]: variable degrees of necrosis with some leukocytes infiltration | IC50 [5]: 4640 nM | IC50 [6]: 1270 nM | SI (COX-2 selectivity index = IC50 of COX-1/IC50 of COX-2) [6]: 3.64

N#Cc1c(NC(=O)CCl)c(C(=O)Nc2ccc(Br)cc2)n2c1CCC2 [Compound 13, N-(4-Bromophenyl)-6-(2-chloroacetamido)-7-cyano-2,3-dihydro-1H-pyrrolizine-5-carboxamide]
% Inhibition in Edema Thickness 1 h [1]: 16.13% | % Inhibition in Edema Thickness 2 h [1]: 35.43% | % Inhibition in Edema Thickness 3 h [1]: 52.31% | Potency (anti-inflammatory activity of tested compound/ibuprofen) [1]: 1.28 | anti-inflammatory activity (in words) [1]: the highest anti-inflammatory activity | analgesic potency relative to ibuprofen [2]: 1.03 to 1.27 times | analgesic activity (in words) [2]: higher analgesic activity than ibuprofen | Ulcerogenicity UI (ulcer index) [3]: 4.41 | Ulcerogenicity % Protection (% inhibition of ulcer relative to ibuprofen) [3]: 68.18% | histopathological findings in stomach transverse sections [4]: variable degrees of necrosis with some leukocytes infiltration | IC50 [5]: 5690 nM | IC50 [6]: 1640 nM | SI (COX-2 selectivity index = IC50 of COX-1/IC50 of COX-2) [6]: 3.48

N#Cc1c2c(n3c1CCC3)C(=O)N(c1ccc(Br)cc1)CC(=O)N2 [Compound 15, 4-(4-Bromophenyl)-2,5-dioxo-1,2,3,4,5,7,8,9-octahydro-[1,4]diazepino[5,6-b]pyrrolizine-10-carbonitrile]
% Inhibition in Edema Thickness 1 h [1]: 10.60% | % Inhibition in Edema Thickness 2 h [1]: 16.54% | % Inhibition in Edema Thickness 3 h [1]: 24.91% | Potency (anti-inflammatory activity of tested compound/ibuprofen) [1]: 0.61 | analgesic activity (in words) [2]: lower than that of ibuprofen | histopathological findings in stomach transverse sections [4]: little histopathological effects such as congested blood vessels and variable degrees of leukocytes infiltration | IC50 [5]: 3370 nM | IC50 [6]: 1060 nM

CC(C)Cc1ccc(C(C)C(=O)O)cc1 (centres unmarked) [Ibuprofen, reference compound]
% Inhibition in Edema Thickness 1 h [1]: 25.81% | % Inhibition in Edema Thickness 2 h [1]: 33.46% | % Inhibition in Edema Thickness 3 h [1]: 40.82% | Potency (anti-inflammatory activity of tested compound/ibuprofen) [1]: 1.00 | Ulcerogenicity UI (ulcer index) [3]: 13.86 | Ulcerogenicity % Protection (% inhibition of ulcer relative to ibuprofen) [3]: 0% | histopathological findings in stomach transverse sections [4]: severe damage represented by leukocytes infiltration and necrosis in the mucosa layer with hypertrophy in mucosal glands

Source: paper PMC6273963, “Design, Synthesis, and Biological Evaluation of Some Novel Pyrrolizine Derivatives as COX Inhibitors with Anti-Inflammatory/Analgesic Activities and Low Ulcerogenic Liability” (Molecules, 2016)
